From US12551463B2, “Dosing of a Bruton's tyrosine kinase inhibitor” (Loxo Oncology, Inc., priority 2019, dated 2026)

What was measured:
[1] = Human clinical trials of BTK-I: adverse events in the overall safety population of 323 patients; assay type: in vivo
Protocol: (Mato A., et al., “Toxicities and Outcomes of 616 Ibrutinib-Treated Patients in the United States: A Real-World Analysis”, Haematologica, 2018, 103(5), 874-879.) Between Mar. 21, 2019 and Sep. 27, 2020, across 7 dose levels ranging from 25 mg once daily (QD) to 300 mg QD in 323 patients, the only treatment-emergent adverse events regardless of attribution or grade seen in ≥10% of patients (n=323) were fatigue (n=65, 20%), diarrhea (n=55, 17%), and contusion (n=42, 13%). In 121 efficacy-evaluable cBTKi-treated chronic lymphocytic leukemia (CLL) patients (median prior lines=4), overall response rate (ORR) was 62% (95% CI: 53-71), rising to 84% in patients followed for ≥10 months.
Atrial arrythmias and hemorrhage are two important AEs associated with covalent BTK inhibitor discontinuation. […] Only 1 patient experienced a grade 3 hemorrhage, a subarachnoid bleed sustained during a bicycle accident. In total, 18 patients had discontinued a prior BTK inhibitor for cardiovascular toxicity (in 15) or hemorrhage (3). None experienced recurrence of these events on BTK-I.

[2] = tested on: Waldenstrom's macroglobulinemia; test: Phase 1/2 clinical study, Waldenstrom's macroglobulinemia patients; assay type: in vivo, human
Source text: (§1) The study is an open-label, multi-center study of oral BTK-I to evaluate safety and efficacy as monotherapy and as part of combination therapy in patients with CLL/SLL and NHL who have failed or are intolerant to standard of care. This study includes monotherapy as well as combination treatment parts. The monotherapy part includes Phase 1 dose escalation and dose expansion as well as Phase 2. The combination therapy part is a Phase 1b (safety assessment and expansion) of BTK-I in combination with venetoclax, with or without anti-CD20 therapy. Phase 1 dose escalation will proceed prior to start of Phase 1b or Phase 2. Once a recommended Phase 2 dose (RP2D) is identified in Phase 1, enrollment can commence to the Phase 1b combination therapies and Phase 2 monotherapy cohorts.
(§2) The primary objectives of the Phase 1 Dose Escalation and Expansion part of the study is to determine the maximum tolerated dose (MTD)/RP2D of oral BTK-I in patients with previously treated CLL/SLL and B-cell NHL.
(§3) Patients are enrolled with histologically confirmed CLL/SLL or B-cell NHL who have failed or are intolerant to at least two prior standard of care regimens given in combination or sequentially or have received at least one prior BTK inhibitor-containing regimen when BTK inhibitor is approved in first line.
(§4) BTK-I is administered in oral tablet form. Dose escalation will follow a 3+3 design starting with a 25 mg QD dose (followed by 50 mg QD (dose level cohort 2), 100 mg QD (dose level cohort 3), 150 mg QD (dose level cohort 4), 200 mg QD (dose level cohort 5), 250 mg QD (dose level cohort 6), and 300 mg QD (dose level cohort 7)). Cycle length will be 28 days. The drug limiting toxicity (DLT) period will be 28 days, commencing with the first dose of BTK-I.
(§5) The primary objective of the Phase 2 is to assess the primary anti-tumor activity of BTK-I based on overall response rate (ORR) and as assessed by the Independent Review Committee.
(§6) At the RP2D up to ˜600 patients with CLL/SLL or NHL will be enrolled to one of the following cohorts: • Cohort 1: Non-blastoid MCL patients treated with a prior BTK-inhibitor. • Cohort 2: CLL/SLL patients treated with 2 or more prior regimens, including a BTK inhibitor-containing regimen. • Cohort 3: CLL/SLL patients with no prior therapy. • Cohort 4: CLL/SLL patients treated with prior therapy, BTK inhibitor naive. • Cohort 5: WM patients treated with a prior BTK inhibitor containing regimen. • Cohort 6: MZL patients treated with a prior BTK inhibitor containing regimen. • Cohort 7: (Not otherwise specified) defined as CLL/SLL or NHL not otherwise specified in Cohorts 1 through 6, inclusive of CLL/SLL or NHL, Richter's transformation, blastoid MCL, and patients with history of CNS involvement or primary CNS lymphoma.
(§7) Dosing during Phase 2 will be at the RP2D of 200 mg QD. The cycle length will be 28 days. BTK-I will be administered to the Phase 2 patients in oral tablet form at the RP2D. The dose (and schedule) chosen for Phase 2 may be changed by the SRC based on emerging data (e.g., PK, safety, and/or efficacy) as long as the new dose is not greater than the highest dose that has a DLT <33% and is determined to be safe by the SRC in Phase 1. If the RP2D is changed based on emerging data, patients enrolled to Phase 2 at a different dose may have the dose changed to the new dose.

MCL = test: Phase 1/2 clinical study, mantle cell lymphoma patients; assay type: in vivo, human
Source text: as §1, §2, §3, §4, §5, §6, §7

[3] = 25 mg QD to 300 mg QD, n=323, regardless of attribution or grade
[4] = of 13 with prior covalent BTK inhibitor

## COc1ccc(F)cc1C(=O)NCc1ccc(-c2nn([C@@H](C)C(F)(F)F)c(N)c2C(N)=O)cc1 [BTK-I, (S)-5-amino-3-(4-((5-fluoro-2-methoxybenzamido)methyl)phenyl)-1-(1,1,1-trifluoropropane-2-yl)-1H-pyrazole-4-carboxamide]
[1]; [3]
  treatment-emergent adverse event contusion, patients: 13%
  treatment-emergent adverse event diarrhea, patients: 17%
  treatment-emergent adverse event fatigue, patients: 20%
[1]; 18 patients who had discontinued a prior BTK inhibitor for cardiovascular toxicity (15) or hemorrhage (3)
  recurrence of cardiovascular toxicity or hemorrhage on BTK-I: None
[1]; n=323 (in 5)
  permanent discontinuations for drug-related adverse events, patients: 1.5%
[1]; n=323 (in 7)
  dose reductions for drug-related adverse events, patients: 2.2%
[1]; n=323 (in 26)
  dose interruptions for drug-related adverse events, patients: 8.0%
[1]; overall safety population of 323 patients, 2 patients, both grade 2, considered unrelated
  atrial fibrillation/flutter, patients: 0.6%
[1]; overall safety population of 323 patients, subarachnoid bleed during a bicycle accident
  grade 3 hemorrhage: 1 patient
[2]; 13 patients with prior covalent BTK inhibitor
  ORR: 69%
[2]; 19 efficacy-evaluable WM patients
  ORR: 68%
[2]; median follow-up 4.6 months
  WM responders ongoing: Ten of 13
[2]; [4]
  MR, patients: 4
  PR, patients: 5
[2]; of 19 efficacy-evaluable
  PR, patients: 9
  minor response (MR), patients: 4
MCL; 52 patients with prior covalent BTK inhibitor, 95% CI: 38-66
  ORR: 52%
MCL; 56 efficacy-evaluable MCL patients, 95% CI: 38-65
  ORR: 52%
MCL; MCL
  median time to first response: 1.8 months
MCL; all MCL patients
  patients remaining on BTK-I: 57%
MCL; of 29 responders (4 PD, 1 in CR)
  responding patients who discontinued treatment: 5
MCL; of 56 efficacy-evaluable
  CR, patients: 14
  NE, patients: 5
  PD, patients: 12
  PR, patients: 15
MCL; patients with blastoid variant MCL
  responses: 2 of 4
MCL; patients with prior CAR-T
  responses: 2 of 2
MCL; prior autologous or allogeneic transplant (9/14)
  responses: 64%
